Patent publication US7432360B2, “Multi-dose erythropoietin formulations” (Aventis Pharmaceuticals Inc., priority 2005, dated 2008)
Where two headings read alike, the source gives them in different places.

Experiments:
[1] = Appearance of the solution when the preservative is used in the EPO formulation; type: physicochemical
Experimental: Multi-dose EPO-containing solutions were formulated as sterile, non-pyrogenic, colorless aqueous solutions in water for injection at 10,000 units and 20,000 units concentration. Solutions prepared contained a 20 mM phosphate buffer (sodium phosphate monobasic monohydrate, and sodium phosphate dibasic heptahydrate), 0.01% w/v polysorbate 20 as an antiadsorbent, 0.45-0.8% w/v sodium chloride (depending on the preservative system that was used, the amount of sodium chloride was adjusted to produce an Osmolality of approximately 300 mOsm/kg), and a preservative system.

[2] = Stability of EPO in preserved formulations, reverse phase HPLC assay (% label claim); type: physicochemical; conditions: in the presence of thimerosal
Experimental: Prototype batches were made using these selected preservatives and placed on stability at 5° C. and 25° C. Samples were tested by a reverse phase HPLC method.
Detection of the EPO protein was monitored at 210 nm.

[3] = test system: indicator aerobic bacteria and molds; experiment: Preservative challenge test (USP and EP criteria); type: cell-based; conditions: in the EPO formulation
[4] = pH>3; cited from earlier work
[5] = preservative in EPO formulation (phosphate buffer, polysorbate 20, sodium chloride, pH approx. 7.0)

| SMILES | appearance of solution [1, 5] | also measured |
| --- | --- | --- |
| O=[N+]([O-])[O-].[Hg+][c]1ccccc1 [phenyl mercuric nitrate] | cloudy |  |
| C[CH2][Hg][S]c1ccccc1C(=O)[O-].[Na+] [Thimerosal] | clear | chemical stability of the EPO formulation [2]: good chemical stability; preservative efficacy [3]: good preservative efficacy |
| CCCOC(=O)c1ccc(O)cc1 [propyl paraben] | hazy to cloudy |  |
| Oc1ccccc1 [phenol] |  | appearance of solution [1]: hazy to cloudy |
| CC(C)(O)C(Cl)(Cl)Cl [chlorobutanol] |  | stability of chlorobutanol [4]: not stable |
| Cc1cccc(O)c1 [m-cresol] | hazy to cloudy |  |
| COC(=O)c1ccc(O)cc1 [Methyl paraben] | hazy to cloudy |  |
